US20060257935A1, “Hematopoietic factor production promoter” (Ajinomoto Co., Inc., priority 2005, published 2006)

Experiments:
[1] = system: mouse bone marrow cells (CFU-E); experiment: In vitro mouse CFU-E colony assay (methylcellulose semi-solid medium); assay type: cell-based
Protocol: An in vitro mouse CFU-E colony assay was conducted in accordance with the following method. After a female BDF-1 mouse at 10 weeks of age (Charles River Japan, Inc.) was killed by the cervical dislocation method, bone marrow cells were isolated from the femur and suspended in an IMDM medium (Invitrogen) containing 10% FCS (JRH Bioscience Inc). The bone marrow cells were centrifuged at 1500 rpm for 10 minutes at 4° C. and the precipitated bone marrow cells were resuspended in an amino acid-free IMDM medium and the number of cells was measured. […] At 28 hours after the culture was carried out under the condition of 37° C. and 5% CO2, the number of CFU-E colonies was measured using an inverted microscope. […] The data is expressed as a mean value±SEM. […]

MC3T3-E1 cells = conditions: cited from earlier work
IGF-1 = IGF-1 mRNA quantification by quantitative PCR in bone marrow cells isolated from renal failure rat; assay type: cell-based; conditions: 2 hours after addition of arginine, 400 μM or 600 μM vs 100 μM
From the text: (§1) A renal failure rat (a rat from which ⅚ of kidney was removed) was produced as follows. A male Wistar rat at 8 weeks of age (Charles River Japan, Inc.) was subjected to the total extirpation of the right kidney and the ⅔ extirpation of the renal cortex of the left kidney under anesthesia with Nembutal and was sutured. After the surgery, the rat was housed under normal housing condition (CRF-1 diet, Charles River Japan, Inc.). Six weeks after the surgery the renal failure rat was killed by diethyl ether, then both femurs were excised and bone marrow cells were isolated. The isolated bone marrow cells were suspended in an IMDM medium with blood amino acid concentration containing 10% FCS. […]
(§2) The quantification of mRNA of each of the hematopoietic factors was determined by the quantitative PCR method mentioned below. Based on the sequences of activin (rat Inhibin betaA), SCF and IGF-1 registered in NCBI (GenBank accession Nos. M37482, NM021843, and NM178886, respectively in the order), oligonucleotide primers to be used for the quantitative PCR method were synthesized. […]
(§3) The quantitative PCR method was in accordance with the method described in SYBRGreen PCR kit (TOYOBO., Ltd.). […] After the quantitative PCR, the presence or absence and size of an amplified product were confirmed by agarose gel electrophoresis. […]

SCF = SCF mRNA quantification by quantitative PCR in bone marrow cells isolated from renal failure rat; assay type: cell-based; conditions: 2 hours after addition of arginine, 400 μM or 600 μM vs 100 μM
From the text: as §1, §2, §3

[2] = system: patients with renal anemia; conditions: cited from earlier work
[3] = system: porcine primary hepatocyte; conditions: added to medium for porcine primary hepatocyte culture at a high concentration; cited from earlier work
[4] = Blood arginine concentration after oral administration to rats; assay type: in vivo, rat; conditions: oral single-dose administration of arginine at 1.2 g/kg
[5] = system: activin (rat Inhibin betaA); experiment: Activin mRNA quantification by quantitative PCR in bone marrow cells isolated from renal failure rat; assay type: cell-based; conditions: 2 hours after addition of arginine, 400 μM or 600 μM vs 100 μM
From the text: as §1, §2, §3

normal rats = conditions: repeated administration; cited from earlier work

Molecule: N=C(N)NCCC[C@H](N)C(=O)O [arginine]
- number of CFU-E colonies ([1]; 600 μM arginine added to isolated mouse bone marrow cells, compared with 170 μM): significantly increases
- gene expression of IGF-1 (MC3T3-E1 cells; MC3T3-E1 cells, arginine added at a higher concentration): increases
- secretion amount of IGF-1 (MC3T3-E1 cells; MC3T3-E1 osteoblast-like cell line): increases
- production of IGF-1 (relative mRNA level per total RNA) (IGF-1): promotes the production
- production of SCF (relative mRNA level per total RNA) (SCF): promotes the production
- condition of anemia (number of red blood cells) [2]: improved
- gene expression of IGF-1 [3]: increases
- blood arginine concentration [4]: about 600 μM
- production of activin (relative mRNA level per total RNA) [5]: promotes the production
- amount of hemoglobin and red blood cells (normal rats): increased

Molecule: O=C(O)[C@@H]1CCCN1 [proline]
- gene expression of IGF-1 [3]: increases

Molecule: C[C@@H](O)[C@H](N)C(=O)O [threonine]
- gene expression of IGF-1 [3]: increases

Molecule: N[C@@H](Cc1c[nH]c2ccccc12)C(=O)O [triptophan]
- gene expression of IGF-1 [3]: increases

B1: follistatin: follistatin (FSN, anti-activin, R&D Co.), inhibitor for activin (protein, UniProt P19883 30-344, looked up)
Follistatin: GNCWLRQAKNGRCQVLYKTELSKEECCSTGRLSTSWTEEDVNDNTLFKWMIFNGGAPNCIPCKETCENVDCGPGKKCRMNKKNKPRCVCAPDCSNITWKGPVCGLDGKTYRNECALLKARCKEQPELEVQYQGRCKKTCRDVFCPGSSTCVVDQTNNAYCVTCNRICPEPASSEQYLCGNDGVTYSSACHLRKATCLLGRSIGLAYEGKCIKAKSCEDIQCTGGKKCLWDFKVGRGRCSLCDELCPDSKSDEPVCASDNATYASECAMKEAACSSGVLLEVKHSGSCNSISEDTEEEEEDEDQDYSFPISSILEW
- inhibition of CFU-E-colony stimulating activity of arginine ([1]; follistatin 100 ng/ml, 600 μM arginine, 28 hours culture): inhibited
